Where a name gives a salt, the structure may show the parent alone. Read-outs that look alike come from different tables or passages of the source.
Legend:
[1] = system: Reduced glutathione in salivary gland cell clusters (SGm); test: Glutathione assay in salivary gland tissue chip, 4 days post-radiation (15 Gy); also first screen of Selleck library at 100 μM; type: cell-based, mouse; details: for Glutathione normalized mean intensity: first screen of Selleck library at 100 μM; for Estimated EC50, Glutathione: nonlinear fit in Prism of dose response curves; for hit in the drug screen: glutathione assay first screen, 100 μM; for Glutathione (radioprotection): key: +: radioprotection; ~: partial radioprotection; —: no radioprotection
Excerpt: (§1) A salivary gland tissue chip was leveraged for high-content drug screening to identify novel radioprotective compounds (Song Y et al., Commun Biol., 2021, 4). The chip platform consists of an array of near-spherical microbubble (MB) cavities formed in poly(dimethylsiloxane) (PDMS). Each chip, containing ~50 MBs, affixed within wells of a 96-well plate (FIG. 1C). Primary salivary gland cell clusters (FIG. 1A), suspended in a poly(ethylene glycol) (PEG) hydrogel precursor and MMP-degradable peptide crosslinker solution together with the photoinitiator LAP, were applied to the chip allowing the clusters to deposit into the MBs (FIG. 1D). In situ polymerization of the hydrogel was achieved using long-wave, low intensity UV light. Over time, the cell clusters aggregate and proliferate to form SGm (FIG. 1C).
The glutathione assay was used to measure glutathione levels at various time points post-radiation to determine the optimal time point for detecting differences between 0 Gy and 15 Gy. Based on the data, the greatest signal separation was measured at 4 days post-irradiation (FIG. 9). This timepoint is similar to previous reports on decreases in glutathione post-radiation and was used for all experiments moving forward (Meeks L et al., Physiological Genomics, 2021, 53: 85-98).
The dose response to WR-1065 was examined to determine effective concentrations of WR-1065 to prevent the reduction of glutathione levels post-radiation. A SGm tissue chip was cultured for 4 days to allow spheres to form. The chip was then treated with WR-1065 30 minutes before and during radiation, followed by drug wash out with media 30 minutes post-radiation (FIG. 2A). This dosing scheme is consistent with the use of Amifostine clinically and with previous work. The glutathione assay was performed at 4 days post-radiation (FIG. 2A). […] Moreover, it is clinically relevant as 15-30 minutes before radiation, patients are administered Amifostine intravenously at 200 mg/m (Escobar A et al., IntechOpen, 2019, pp. 15-37; Eisbruch A, J Clin Oncol, 2011, 29: 119-121; Bardet, E. et al. Semin Oncol, 2002, 29, 57-60). Assuming an average adult body surface area of 17,000 cm^2 and a blood volume of 1.35 gallons (5.1 liters), Amifostine is administered at 300 μM (Mosteller, R. D. N Engl J Med 317, 1098 (1987)).
The glutathione and senescence assays were used to screen a library of FDA-approved drugs (Selleck Chemicals) at 100 μM. Drugs were first screened using the glutathione assay according to the timeline depicted in FIG. 2A. Any compound resulting in statistically similar glutathione levels compared to 0 Gy control was considered a hit (FIG. 4, grey circles). Hits with the glutathione assay were then tested with the senescence assay and considered a “double hit” if senescence levels were statistically similar to levels at 0 Gy (FIG. 4, black circles). […] While this hit rate is higher than many other drug screening reports (0.1-0.3%), this may be due to the statistical rigor afforded by the tissue chip format (Blanchard, C et al., Antimicrob Agents Chemother 2016, 60, 862-872; Colquhoun, J. M et al., Antibiotics (Basel) 2019, 8, 48). Additionally, phenotypic screens generally have higher hit rates than target-based screens (>1%) (Moffat, J. G et al., Nature Reviews Drug Discovery 2017, 16, 531-543; Rottman, M et al., Science 2010, 329, 1175-1180).
Mice were euthanized and the submandibular glands (SMG) were removed and chopped with a razor blade for 5 min. The tissue was then incubated in Hank's buffered salt solution (HBSS) containing 15 mM HEPES, 50 U/mL collagenase type II (Thermo Fischer 17101015), and 100 U/mL hyaluronidase (Sigma Aldrich H3506) at 37 °C for 30 min. Cells were centrifuged, then resuspended in HBSS with 15 mM HEPES and passed through 100 μm and 20 μm mesh filters to isolate clusters between 20-100 μm. The digestion protocol produces cell cluster sizes evenly distributed between 20 to 100 μm (Song, Y et al., Advanced Healthcare Materials). […]

[2] = system: senescence-associated β-galactosidase in salivary gland cell clusters (SGm); test: Cellular senescence assay (SPiDER-βGal) in salivary gland tissue chip, 5 days post-radiation (15 Gy); also second screen of library hits at 100 μM; type: cell-based, mouse; details: for Senescence normalized mean intensity: second screen of library hits at 100 μM, 5 days post-radiation, only drugs nonsignificant compared to 0 Gy in the glutathione assay; for Senescence (radioprotection): key: +: radioprotection; ~: partial radioprotection; —: no radioprotection
Excerpt: as §1, with “The” for “A salivary gland tissue chip was leveraged for high-content drug screening to identify novel radioprotective compounds (Song Y et al., Commun Biol., 2021, 4). The”
For senescence, a protocol similar to the glutathione assay was followed to determine the optimal time point post-radiation for detecting a change in senescence between 0 Gy and 15 Gy, as measured by senescence-associated β-galactosidase activity.
The glutathione and senescence assays were used to screen a library of FDA-approved drugs (Selleck Chemicals) at 100 μM. Drugs were first screened using the glutathione assay according to the timeline depicted in FIG. 2A. […] Hits with the glutathione assay were then tested with the senescence assay and considered a “double hit” if senescence levels were statistically similar to levels at 0 Gy (FIG. 4, black circles).
Mice were euthanized and the submandibular glands (SMG) were removed and chopped with a razor blade for 5 min. […] Cells were centrifuged, then resuspended in HBSS with 15 mM HEPES and passed through 100 μm and 20 μm mesh filters to isolate clusters between 20-100 μm. […] The isolated clusters were combined with hydrogel precursor solution and seeded in MB array-based chips as described below.
The cell/gel precursor solution (25 μL for 48 well; 20 μL for 96 well) was pipetted onto the MB chips and incubated for 30 min, pipetting every 10 min to redisperse cells that had settled onto the surface of the chip.
A cellular senescence assay for the chips was developed by adapting the Cellular Senescence Detection Kit—SPiDER-βGal (Dojindo Molecular Technologies, Inc. SG04). Bafilomycin A1 and SPiDER-βGal stock solutions were prepared in DMSO per manufacturer directions. The assay was performed by first incubating the chips with bafilomycin A1 (1:1000 dilution in media) for 1 hr at 37 °C. […] Chips were washed twice with media and imaged using a fluorescence microscope with a Texas Red filter (Excitation: 580 nm; Emission: 604 nm).
For radioprotection experiments, SGm were cultured in MB-hydrogel chips for 4 days, then drugs were added to the chips 30 min prior to irradiation and washed out with media 30 min post-radiation treatment. […] The glutathione and senescence assays were performed at 4- and 5-days post-radiation. For assay validation experiments, at least 3 chips (N=3) were used for each drug, corresponding to >100 MBs (n>100); these values are listed in the figure description for each experiment. Mean, standard deviation, and statistics were calculated based on the number of MBs (n).
For screening of the Selleck Chemicals compound library, the same treatment scheme was used, with drugs administered at 100 μM. One MB chip (N=1) was used per compound, with ~40-50 MBs per chip […]; statistics were calculated using the number of MBs (n) and compared to 0 Gy controls.
For both the glutathione and cellular senescence assays, images were quantified in ImageJ.

lymphocyte cells = details: viability of lymphocytes as primary readout; cited from earlier work
[3] = Mus musculus, light or radiation study, 120 h, read-out: reduction in senescence

Compound: COc1ccccc1OCCNCC(O)COc1cccc2[nH]c3ccccc3c12 (stereo not shown) [Carvedilol]
- Glutathione normalized mean intensity ([1]; 15 Gy, 4 days post-radiation): 0.9878
- Senescence normalized mean intensity ([2]; 15 Gy): 1.255

Compound: C[C@H](CCC(=O)O)[C@H]1CC[C@H]2[C@@H]3[C@H](O)C[C@@H]4C[C@H](O)CC[C@]4(C)[C@H]3CC[C@]12C [Chenodeoxycholic acid]
- Glutathione normalized mean intensity ([1]; 15 Gy, 4 days post-radiation): 1.11
- Senescence normalized mean intensity ([2]; 15 Gy): 1.45

Compound: CN(C)CCC(c1ccc(Cl)cc1)c1ccccn1 (stereo not shown) [Chlorpheniramine Maleate]
- Glutathione normalized mean intensity ([1]; 15 Gy, 4 days post-radiation): 1.145
- Senescence normalized mean intensity ([2]; 15 Gy): 1.308

Compound: CN1CCC[C@@H]1CCO[C@](C)(c1ccccc1)c1ccc(Cl)cc1 [Clemastine Fumarate]
- Glutathione normalized mean intensity ([1]; 15 Gy, 4 days post-radiation): 1.106
- Senescence normalized mean intensity ([2]; 15 Gy): 1.237

Compound: CCOC(=O)C(C)(C)Oc1ccc(Cl)cc1 [Clofibrate (Atromid-S)]
- Glutathione normalized mean intensity ([1]; 15 Gy, 4 days post-radiation): 1.009
- Senescence normalized mean intensity ([2]; 15 Gy): 1.714

Compound: COc1cc(/C=C/C(=O)CC(=O)/C=C/c2ccc(O)c(OC)c2)ccc1O [Curcumin]
- Glutathione normalized mean intensity ([1]; 15 Gy, 4 days post-radiation): 0.9059
- Senescence normalized mean intensity ([2]; 15 Gy): 0.8098

Compound: CC/C(=C(/CC)c1ccc(O)cc1)c1ccc(O)cc1 [Diethylstilbestrol (Stilbestrol)]
- concentration range of radioprotection, glutathione assay ([1]; dose response, 15 Gy): 10 to 100 µM
- Glutathione normalized mean intensity ([1]; 15 Gy, 4 days post-radiation): 0.8894
- Estimated EC50, Glutathione ([1]; 15 Gy): 700 nM
- concentration range of radioprotection, senescence assay ([2]; dose response, 15 Gy): 50 to 100 µM
- Estimated EC50, Senescence ([2]; nonlinear fit in Prism of dose response curves, 15 Gy): 37700 nM
- Senescence normalized mean intensity ([2]; 15 Gy): 0.8812

Compound: CC(C(=O)[O-])c1cccc(Oc2ccccc2)c1.CC(C(=O)[O-])c1cccc(Oc2ccccc2)c1.[Ca+2] (stereo not shown) [Fenoprofen calcium]
- Glutathione normalized mean intensity ([1]; 15 Gy, 4 days post-radiation): 0.9731
- Senescence normalized mean intensity ([2]; 15 Gy): 1.472

Compound: COC(=O)Nc1nc2cc(C(=O)c3ccc(F)cc3)ccc2[nH]1 [Flubendazole (Flutelmium)]
- Glutathione normalized mean intensity ([1]; 15 Gy, 4 days post-radiation): 1.065
- Senescence normalized mean intensity ([2]; 15 Gy): 1.444

Compound: Cc1cnc(C(=O)NCCc2ccc(S(=O)(=O)NC(=O)NC3CCCCC3)cc2)cn1 [Glipizide (Glucotrol)]
- radioprotection in dose response, glutathione assay ([1]; dose response, 15 Gy): protection only at higher concentrations
- Estimated EC50, Glutathione ([1]; 15 Gy): 4000 nM
- radioprotection in dose response, senescence assay ([2]; dose response, 15 Gy): variable protection

Compound: O=NN(CCCl)C(=O)NC1CCCCC1 [Lomustine (CeeNU)]
- Glutathione normalized mean intensity ([1]; 15 Gy, 4 days post-radiation): 0.9042
- Senescence normalized mean intensity ([2]; 15 Gy): 1.023

Compound: CC(=O)N[C@@H](CS)C(=O)O [N-acetylcysteine]
- prevention of radiation-induced reduction of glutathione levels ([1]; 1 mM, 15 Gy, 4 days post-radiation): no improvement in glutathione levels
- prevention of radiation-induced reduction of glutathione levels ([1]; 4 mM, 15 Gy, 4 days post-radiation): no improvement in glutathione levels
- radioprotection using the glutathione assay ([1]; 10 mM): partial radioprotection
- glutathione levels rescued ([1]; 10 mM, 15 Gy): 56%
- protection against radiation-induced senescence ([2]; 10 mM): protective
- inhibition at 1000 µM ([2]; Mus musculus, light or radiation study, 120 h, 1 mM, versus untreated, irradiated controls, read-out: reduction in senescence): 83%
- inhibition at 4000 µM ([2]; Mus musculus, light or radiation study, 120 h, 4 mM, versus untreated, irradiated controls, read-out: reduction in senescence): 57%
- inhibition at 10000 µM ([2]; Mus musculus, light or radiation study, 120 h, 10 mM, versus untreated, irradiated controls, read-out: reduction in senescence): 82%

Compound: COC(=O)C1=C(C)NC(C)=C(C(=O)OC)C1c1ccccc1[N+](=O)[O-] [Nifedipine (Adalat)]
- Glutathione normalized mean intensity ([1]; 15 Gy, 4 days post-radiation): 0.9216
- Senescence normalized mean intensity ([2]; 15 Gy): 0.9725

Compound: O=C(Nc1cccc2c(=O)cc(-c3nnn[nH]3)oc12)c1ccc(OCCCCc2ccccc2)cc1 [Pranlukast]
- Glutathione normalized mean intensity ([1]; 15 Gy, 4 days post-radiation): 0.9284
- Senescence normalized mean intensity ([2]; 15 Gy): 1.394

Compound: CC1(C)CC(O)CC(C)(C)N1[O] [Tempol, 4-hydroxy-TEMPO]
- Glutathione (radioprotection) [1]: +
- prevention of radiation-induced reduction of glutathione levels [1]: strong radioprotection
- Senescence (radioprotection) [2]: +
- inhibition at 1000 µM [2, 3]: 75%
- inhibition at 4000 µM [2, 3]: 91%

Compound: C[C@]12C=CC(=O)C=C1CC[C@H]1[C@@H]3C[C@@H](O)[C@](O)(C(=O)CO)[C@@]3(C)C[C@H](O)[C@@]12F [Triamcinolone (Aristocort)]
- Glutathione normalized mean intensity ([1]; 15 Gy, 4 days post-radiation): 1.061
- Senescence normalized mean intensity ([2]; 15 Gy): 0.9883

Compound: COc1c(N2CCNC(C)C2)c(F)cc2c(=O)c(C(=O)O)cn(C3CC3)c12 (stereo not shown) [gatifloxacin]
- hit in the drug screen [1]: not hits
- radioprotection of lymphocytes (lymphocyte cells): radioprotectors

Compound: C[C@H]1COc2c(N3CCN(C)CC3)c(F)cc3c(=O)c(C(=O)O)cn1c23 [levofloxacin]
- hit in the drug screen [1]: not hits
- radioprotection of lymphocytes (lymphocyte cells): radioprotectors

Compound: COc1c(N2C[C@@H]3CCCN[C@@H]3C2)c(F)cc2c(=O)c(C(=O)O)cn(C3CC3)c12 [moxifloxacin]
- radioprotection of lymphocytes (lymphocyte cells): radioprotectors

Compound: Meropenem
- concentration range of radioprotection, glutathione assay ([1]; dose response, 15 Gy): 0.1 to 100 µM
- Estimated EC50, Glutathione ([1]; 15 Gy): 100 nM
- radioprotection in dose response, senescence assay ([2]; dose response, 15 Gy): only partial protection
- double hit in the drug screen ([2]; glutathione and senescence assays, 100 μM, statistically similar to 0 Gy): double hits
